Results taken from patent US12637424B2, “Pharmaceutical salt of an arylpyrrole derivative” (SENTINEL ONCOLOGY LIMITED, priority 2020, dated 2026).

What was measured:
[1] = Chiral stability (interconversion) of isolated atropisomers in ethanol; assay type: physicochemical; conditions: for % ee of sample @ 40° C. / % ee sample @ 80° C.: ethanol; for interconversion / racemization of atropisomers: heating for 10 days at 40° C. and 80° C.
Method: To assess the interconversion of atropisomer A-1 and atropisomer A-2, chiral stability was monitored at 40° C. and 80° C. […] 1. 2×1 mg of pure atropisomer was dissolved in 1 mL of ethanol in a sealed-dram vial. • 2. One set of vials was heated at 40° C. and another set at 80° C. • 3. At specified time-points a 20 μL aliquot from each stock solution (1 mL) was taken and quenched into a HPLC vial containing a 80 μL solution of hexane:ethanol; 80:20 to afford a final concentration of […] and the sample was analysed by chiral HPLC • 4. Analysis was carried out at the following time-points: 0 h, 24 h, 48 h, 72 h, 96 h and 240 h for the samples kept at 40° C. and 24 h, 96 h and 240 h for the samples kept at 80° C. using chiral HPLC method 5

A-172 = test: Cancer cell line panel proliferation (CellTiter-Glo); assay type: cell-based; conditions: A-172, Brain&Nerves, 72 hours
Method: (§1) Screening against diverse cancer cell lines was performed to identify tumour types displaying sensitivity to atropisomers A-1 and A-2. A panel of 48 cancer-derived cell lines was screened in a high-throughput proliferation assay using dilutions of atropisomers A-1/A-2. Cell lines that were screened included those representing cancer of the pancreas, large intestine/colorectum, lung, brain and nerves, and lymphoma and leukaemia cell lines. Cell lines were treated with serial half-log dilutions of compound and assayed 72 hours later for proliferation using CellTiter-Glo Assay (Promega). IC50 values were calculated by fitting the dose-response data using a nonlinear regression model.

A549 = test: as above; assay type: cell-based; conditions: A549, Lung, 72 hours
Method: as §1

AsPC-1 = test: as above; assay type: cell-based; conditions: AsPC-1, Pancreas, 72 hours
Method: as §1

BxPC-3 = test: as above; assay type: cell-based; conditions: BxPC-3, Pancreas, 72 hours
Method: as §1

COLO 205 = test: as above; assay type: cell-based; conditions: COLO 205, Large intestine/Colorectum, 72 hours
Method: as §1

D283 Med = test: as above; assay type: cell-based; conditions: Brain&Nerves, 72 hours
Method: as §1

Daoy = test: as above; assay type: cell-based; conditions: Brain&Nerves, 72 hours
Method: as §1

Daudi = test: as above; assay type: cell-based; conditions: Blood/Lymphoma, 72 hours
Method: as §1

GRANTA-519 = test: as above; assay type: cell-based; conditions: GRANTA-519, Blood/Lymphoma, 72 hours
Method: as §1

HBL-1 = test: as above; assay type: cell-based; conditions: HBL-1, Blood/Lymphoma, 72 hours
Method: as §1

HCC44 = test: as above; assay type: cell-based; conditions: HCC44, Lung, 72 hours
Method: as §1

HCT 116 = test: as above; assay type: cell-based; conditions: HCT 116, Large intestine/Colorectum, 72 hours
Method: as §1

HT-29 = test: as above; assay type: cell-based; conditions: HT-29, Large intestine/Colorectum, 72 hours
Method: as §1

KG-1 = test: as above; assay type: cell-based; conditions: KG-1, Blood/Leukaemia, 72 hours
Method: as §1

LoVo = test: as above; assay type: cell-based; conditions: Large intestine/Colorectum, 72 hours
Method: as §1

MIA PaCa-2 = test: as above; assay type: cell-based; conditions: MIA PaCa-2, Pancreas, 72 hours
Method: as §1

MV-4-11 = test: as above; assay type: cell-based; conditions: MV-4-11, Blood/Leukaemia, 72 hours
Method: as §1

NAMALWA = test: as above; assay type: cell-based; conditions: Blood/Lymphoma, 72 hours
Method: as §1

NCI-H1373 = test: as above; assay type: cell-based; conditions: NCI-H1373, Lung, 72 hours
Method: as §1

NCI-H1975 = test: as above; assay type: cell-based; conditions: NCI-H1975, Lung, 72 hours
Method: as §1

OCI-LY-19 = test: as above; assay type: cell-based; conditions: OCI-LY-19, Blood/Lymphoma, 72 hours
Method: as §1

PANC-1 = test: as above; assay type: cell-based; conditions: PANC-1, Pancreas, 72 hours
Method: as §1

Panc 10.05 = test: as above; assay type: cell-based; conditions: Panc 10.05, Pancreas, 72 hours
Method: as §1

RKO = test: as above; assay type: cell-based; conditions: Large intestine/Colorectum, 72 hours
Method: as §1

Raji = test: as above; assay type: cell-based; conditions: Blood/Lymphoma, 72 hours
Method: as §1

SK-MES-1 = test: as above; assay type: cell-based; conditions: SK-MES-1, Lung, 72 hours
Method: as §1

SU-DHL-2 = test: as above; assay type: cell-based; conditions: SU-DHL-2, Blood/Lymphoma, 72 hours
Method: as §1

SU-DHL-6 = test: as above; assay type: cell-based; conditions: SU-DHL-6, Blood/Lymphoma, 72 hours
Method: as §1

SW1088 = test: as above; assay type: cell-based; conditions: SW1088, Brain&Nerves, 72 hours
Method: as §1

SW480 = test: as above; assay type: cell-based; conditions: SW480, Large intestine/Colorectum, 72 hours
Method: as §1

SW620 = test: as above; assay type: cell-based; conditions: SW620, Large intestine/Colorectum, 72 hours
Method: as §1

T98G = test: as above; assay type: cell-based; conditions: Brain&Nerves, 72 hours
Method: as §1

U118 MG = test: as above; assay type: cell-based; conditions: Brain&Nerves, 72 hours
Method: as §1

Z-138 = test: as above; assay type: cell-based; conditions: Z-138, Blood/Lymphoma, 72 hours
Method: as §1

CN(C)CCNC(=O)c1ccc(-c2ccc(-c3ccc(Cl)cc3)n2-c2ccccc2C(F)(F)F)cc1 (single isomer, unassigned; atropisomer a) [Atropisomer A-1]
% ee of sample @ 40° C. ([1]; 0 h): 100 % ee | % ee of sample @ 40° C. ([1]; 24 h): 100 % ee | % ee of sample @ 40° C. ([1]; 48 h): 100 % ee | % ee of sample @ 40° C. ([1]; 72 h): 100 % ee | % ee of sample @ 40° C. ([1]; 96 h): 100 % ee | % ee of sample @ 40° C. ([1]; 10 days): 100 % ee | % ee sample @ 80° C. ([1]; 0 h): 100 % ee | % ee sample @ 80° C. ([1]; 24 h): 100 % ee | % ee sample @ 80° C. ([1]; 96 h): 100 % ee | % ee sample @ 80° C. ([1]; 10 days): 100 % ee | interconversion / racemization of atropisomers [1]: no interconversion was observed | IC50 (A-172): 7.07 µM | IC50 (A549): 9.19 µM | IC50 (AsPC-1): > 10 µM | IC50 (BxPC-3): 6.97 µM | IC50 (COLO 205): 6.75 µM | IC50 (D283 Med): 9.26 µM | IC50 (Daoy): 7 µM | IC50 (Daudi): 7.17 µM | IC50 (GRANTA-519): 7.42 µM | IC50 (HBL-1): 9.94 µM | IC50 (HCC44): 8.26 µM | IC50 (HCT 116): 7.36 µM | IC50 (HT-29): 4.53 µM | IC50 (KG-1): > 10 µM | IC50 (LoVo): 8.36 µM | IC50 (MIA PaCa-2): 9.17 µM | IC50 (MV-4-11): 6.49 µM | IC50 (NAMALWA): 7.05 µM | IC50 (NCI-H1373): > 10 µM | IC50 (NCI-H1975): 5.14 µM | IC50 (OCI-LY-19): 6.67 µM | IC50 (PANC-1): > 10 µM | IC50 (Panc 10.05): 9 µM | IC50 (RKO): 6.17 µM | IC50 (Raji): 3.91 µM | IC50 (SK-MES-1): 7.78 µM | IC50 (SU-DHL-2): 7.01 µM | IC50 (SU-DHL-6): 3.98 µM | IC50 (SW1088): 8.49 µM | IC50 (SW480): 7.55 µM | IC50 (SW620): 8.35 µM | IC50 (T98G): 5.26 µM | IC50 (U118 MG): 7.6 µM | IC50 (Z-138): 7.04 µM

CN(C)CCNC(=O)c1ccc(-c2ccc(-c3ccc(Cl)cc3)n2-c2ccccc2C(F)(F)F)cc1 (single isomer, unassigned) [Atropisomer A-2]
% ee of sample @ 40° C. ([1]; 0 h): 97.20 % ee | % ee of sample @ 40° C. ([1]; 24 h): 97.34 % ee | % ee of sample @ 40° C. ([1]; 48 h): 97.30 % ee | % ee of sample @ 40° C. ([1]; 72 h): 97.24 % ee | % ee of sample @ 40° C. ([1]; 96 h): 97.14 % ee | % ee of sample @ 40° C. ([1]; 10 days): 97.46 % ee | % ee sample @ 80° C. ([1]; 0 h): 97.20 % ee | % ee sample @ 80° C. ([1]; 24 h): 95.62 % ee | % ee sample @ 80° C. ([1]; 96 h): 96.62 % ee | % ee sample @ 80° C. ([1]; 10 days): 97.12 % ee | interconversion / racemization of atropisomers [1]: no interconversion was observed | IC50 (A-172; Homo sapiens): 0.34 µM | IC50 (A549; Homo sapiens): 0.3 µM | IC50 (AsPC-1; Homo sapiens, ASPC1): 2.9 µM | IC50 (BxPC-3; Homo sapiens): 0.3 µM | IC50 (COLO 205; Homo sapiens): 0.38 µM | IC50 (D283 Med; Homo sapiens): 0.31 µM | IC50 (Daoy; Homo sapiens): 0.18 µM | IC50 (Daudi; Homo sapiens): 0.39 µM | IC50 (GRANTA-519; Homo sapiens): 0.22 µM | IC50 (HBL-1; HBL1): 0.66 µM | IC50 (HCC44; Homo sapiens): 0.48 µM | IC50 (HCT 116; Homo sapiens): 0.23 µM | IC50 (HT-29; Homo sapiens): 0.45 µM | IC50 (KG-1; Homo sapiens): 0.46 µM | IC50 (LoVo; Homo sapiens): 0.54 µM | IC50 (MIA PaCa-2; Homo sapiens): 0.33 µM | IC50 (MV-4-11; Homo sapiens, MV4-11): 0.28 µM | IC50 (NAMALWA): 0.25 µM | IC50 (NCI-H1373; Homo sapiens): 3.21 µM | IC50 (NCI-H1975; Homo sapiens): 0.63 µM | IC50 (OCI-LY-19; Homo sapiens, OCI-LY19): 0.22 µM | IC50 (PANC-1; Homo sapiens): 0.83 µM | IC50 (Panc 10.05; Homo sapiens, Panc1005): 1.14 µM | IC50 (RKO; Homo sapiens): 0.16 µM | IC50 (Raji; Homo sapiens): 0.36 µM | IC50 (SK-MES-1; Homo sapiens): 0.36 µM | IC50 (SU-DHL-2; Homo sapiens): 0.2 µM | IC50 (SU-DHL-6; Homo sapiens): 0.26 µM | IC50 (SW1088; Homo sapiens): 0.77 µM | IC50 (SW480; Homo sapiens): 0.87 µM | IC50 (SW620; Homo sapiens, SW-620): 0.19 µM | IC50 (T98G; Homo sapiens): 0.28 µM | IC50 (U118 MG; Homo sapiens, U-118-MG): 0.47 µM | IC50 (Z-138; Homo sapiens): 0.21 µM
